Data published in PubChem BioAssay (NCI).
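Grown in 96-well plates, cells were treated for 48 hours with each compound at five concentrations. Insufficient inhibition: endpoint recorded as highest concentration tested. TGI is the concentration that stops growth completely.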

Key:
Experiment in all cases: DTP human tumour cell line panel, 48 h
DMS 273 small cell lung = test system: DMS 273 small cell lung
HT29 colon = test system: HT29 colon
HOP-92 NSCLC = test system: HOP-92 NSCLC
COLO 205 colon = test system: COLO 205 colon
SK-OV-3 ovarian = test system: SK-OV-3 ovarian
M19-MEL melanoma = test system: M19-MEL melanoma
K-562 leukemia = test system: K-562 leukemia
HCT-15 colon = test system: HCT-15 colon
DLD-1 colon = test system: DLD-1 colon
RXF 393 renal = test system: RXF 393 renal
HOP-62 NSCLC = test system: HOP-62 NSCLC
DMS 114 small cell lung = test system: DMS 114 small cell lung
ACHN renal = test system: ACHN renal
SF-268 CNS = test system: SF-268 CNS
M14 melanoma = test system: M14 melanoma
SK-MEL-28 melanoma = test system: SK-MEL-28 melanoma
KM20L2 colon = test system: KM20L2 colon
CCRF-CEM leukemia = test system: CCRF-CEM leukemia
786-0 renal = test system: 786-0 renal
TK-10 renal = test system: TK-10 renal
SW-620 colon = test system: SW-620 colon
RPMI-8226 leukemia = test system: RPMI-8226 leukemia
SN12C renal = test system: SN12C renal
IGROV1 ovarian = test system: IGROV1 ovarian
A549 NSCLC = test system: A549 NSCLC
NCI-H522 lung = test system: NCI-H522 lung
EKVX NSCLC = test system: EKVX NSCLC
LOX IMVI melanoma = test system: LOX IMVI melanoma
LXFL 529 NSCLC = test system: LXFL 529 NSCLC
SK-MEL-5 melanoma = test system: SK-MEL-5 melanoma
A498 renal = test system: A498 renal
XF 498 CNS = test system: XF 498 CNS
NCI-H23 lung = test system: NCI-H23 lung
HOP-18 NSCLC = test system: HOP-18 NSCLC
U251 CNS = test system: U251 CNS
CAKI-1 renal = test system: CAKI-1 renal
HCT-116 colon = test system: HCT-116 colon
SF-539 CNS = test system: SF-539 CNS
MOLT-4 leukemia = test system: MOLT-4 leukemia
NCI-H460 lung = test system: NCI-H460 lung
OVCAR-8 ovarian = test system: OVCAR-8 ovarian
UACC-62 melanoma = test system: UACC-62 melanoma
UO-31 renal = test system: UO-31 renal
HL-60(TB) leukemia = test system: HL-60(TB) leukemia
SNB-19 CNS = test system: SNB-19 CNS
OVCAR-4 ovarian = test system: OVCAR-4 ovarian
OVCAR-5 ovarian = test system: OVCAR-5 ovarian
NCI-H226 lung = test system: NCI-H226 lung
RXF-631 renal = test system: RXF-631 renal
SK-MEL-2 melanoma = test system: SK-MEL-2 melanoma
KM12 colon = test system: KM12 colon
HCC-2998 colon = test system: HCC-2998 colon
SNB-78 CNS = test system: SNB-78 CNS
UACC-257 melanoma = test system: UACC-257 melanoma
SNB-75 CNS = test system: SNB-75 CNS
OVCAR-3 ovarian = test system: OVCAR-3 ovarian
SF-295 CNS = test system: SF-295 CNS
MALME-3M melanoma = test system: MALME-3M melanoma

## CCOC(=O)c1ccc(N=Nc2cc(C(=O)OCC)ccc2O)cc1
DMS 273 small cell lung
  TGI: > 100 µM
HT29 colon
  TGI: > 100 µM
HOP-92 NSCLC
  TGI: > 100 µM
COLO 205 colon
  TGI: > 100 µM
SK-OV-3 ovarian
  TGI: > 100 µM
M19-MEL melanoma
  TGI: > 100 µM
K-562 leukemia
  TGI: > 100 µM
HCT-15 colon
  TGI: > 100 µM
DLD-1 colon
  TGI: > 100 µM
RXF 393 renal
  TGI: > 100 µM
HOP-62 NSCLC
  TGI: > 100 µM
DMS 114 small cell lung
  TGI: > 100 µM
ACHN renal
  TGI: > 100 µM
SF-268 CNS
  TGI: > 100 µM
M14 melanoma
  TGI: > 100 µM
SK-MEL-28 melanoma
  TGI: > 100 µM
KM20L2 colon
  TGI: > 100 µM
CCRF-CEM leukemia
  TGI: > 100 µM
786-0 renal
  TGI: > 100 µM
TK-10 renal
  TGI: > 100 µM
SW-620 colon
  TGI: > 100 µM
RPMI-8226 leukemia
  TGI: > 100 µM
SN12C renal
  TGI: > 100 µM
IGROV1 ovarian
  TGI: > 100 µM
A549 NSCLC
  TGI: > 100 µM
NCI-H522 lung
  TGI: > 100 µM
EKVX NSCLC
  TGI: 41.8 µM
LOX IMVI melanoma
  TGI: > 100 µM
LXFL 529 NSCLC
  TGI: > 100 µM
SK-MEL-5 melanoma
  TGI: > 100 µM
A498 renal
  TGI: > 100 µM
XF 498 CNS
  TGI: 22 µM
NCI-H23 lung
  TGI: > 100 µM
HOP-18 NSCLC
  TGI: > 100 µM
U251 CNS
  TGI: > 100 µM
CAKI-1 renal
  TGI: > 100 µM
HCT-116 colon
  TGI: > 100 µM
SF-539 CNS
  TGI: > 100 µM
MOLT-4 leukemia
  TGI: > 100 µM
NCI-H460 lung
  TGI: > 100 µM
OVCAR-8 ovarian
  TGI: > 100 µM
UACC-62 melanoma
  TGI: > 100 µM
UO-31 renal
  TGI: > 100 µM
HL-60(TB) leukemia
  TGI: > 100 µM

## Cn1c2ccccc2c2ncc3[nH]c4ccccc4c3c21
DMS 273 small cell lung
  TGI: 34.7 µM
HT29 colon
  TGI: 31.1 µM
HOP-92 NSCLC
  TGI: 56.8 µM
COLO 205 colon
  TGI: 39.1 µM
SK-OV-3 ovarian
  TGI: 80.8 µM
M19-MEL melanoma
  TGI: 49.1 µM
K-562 leukemia
  TGI: 95.5 µM
HCT-15 colon
  TGI: 63.7 µM
DLD-1 colon
  TGI: > 100 µM
RXF 393 renal
  TGI: 30.6 µM
SNB-19 CNS
  TGI: > 100 µM
OVCAR-4 ovarian
  TGI: 32.1 µM
HOP-62 NSCLC
  TGI: > 100 µM
DMS 114 small cell lung
  TGI: 54.3 µM
ACHN renal
  TGI: 54.9 µM
OVCAR-5 ovarian
  TGI: 47.8 µM
NCI-H226 lung
  TGI: 51.8 µM
SF-268 CNS
  TGI: 61.8 µM
M14 melanoma
  TGI: 35.2 µM
SK-MEL-28 melanoma
  TGI: 31.7 µM
KM20L2 colon
  TGI: 36.6 µM
RXF-631 renal
  TGI: > 100 µM
CCRF-CEM leukemia
  TGI: > 100 µM
786-0 renal
  TGI: > 100 µM
TK-10 renal
  TGI: 45.1 µM
SW-620 colon
  TGI: 71 µM
RPMI-8226 leukemia
  TGI: 63 µM
SN12C renal
  TGI: 73.2 µM
SK-MEL-2 melanoma
  TGI: > 100 µM
IGROV1 ovarian
  TGI: 58.2 µM
A549 NSCLC
  TGI: 49.6 µM
NCI-H522 lung
  TGI: 33.2 µM
EKVX NSCLC
  TGI: 65.6 µM
LOX IMVI melanoma
  TGI: 56.2 µM
LXFL 529 NSCLC
  TGI: 80.1 µM
SK-MEL-5 melanoma
  TGI: 40 µM
KM12 colon
  TGI: 33.9 µM
A498 renal
  TGI: 36.7 µM
HCC-2998 colon
  TGI: > 100 µM
XF 498 CNS
  TGI: 31.8 µM
NCI-H23 lung
  TGI: 43.7 µM
U251 CNS
  TGI: 39.9 µM
CAKI-1 renal
  TGI: 68.8 µM
SNB-78 CNS
  TGI: 57.6 µM
UACC-257 melanoma
  TGI: 42.6 µM
HCT-116 colon
  TGI: 26 µM
SF-539 CNS
  TGI: 32.4 µM
MOLT-4 leukemia
  TGI: 67.4 µM
NCI-H460 lung
  TGI: 32.2 µM
OVCAR-8 ovarian
  TGI: 52.7 µM
SNB-75 CNS
  TGI: 35.6 µM
OVCAR-3 ovarian
  TGI: 31.6 µM
UACC-62 melanoma
  TGI: 41.7 µM
SF-295 CNS
  TGI: 47.9 µM
UO-31 renal
  TGI: 26.9 µM
HL-60(TB) leukemia
  TGI: 41.3 µM
MALME-3M melanoma
  TGI: > 100 µM
